According to the supplement of paper PMC10307832:

Experiments:
Test in all cases: relative viability (nuclei count vs DMSO), 5 days (fraction); higher = more cells survive
NCI-H2009 = tested on: NCI-H2009
Summary of the method: (§1)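 One day after seeding in 1536-well plates, lung cancer cell lines were dosed by pin tool. Dosing was either single-drug or a fixed anchor-drug dose plus five library-drug doses (not always all listed) in √10 steps. After 5 days, nuclei were stained in one fix-and-stain step and counted on 4× images, and relative viability is the nuclei count of treated wells over that of vehicle wells, given as the median of duplicate plates.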

NCI-H2170 = tested on: NCI-H2170
Summary of the method: as §1

NCI-H1755 = tested on: NCI-H1755
Summary of the method: as §1

EMC-BAC-2 = tested on: EMC-BAC-2
Summary of the method: as §1

NCI-H1651 = tested on: NCI-H1651
Summary of the method: as §1

H3255 = tested on: H3255
Summary of the method: as §1

HOP-62 = tested on: HOP-62
Summary of the method: as §1

NCI-H322M = tested on: NCI-H322M
Summary of the method: as §1

ABC-1 = tested on: ABC-1
Summary of the method: as §1

NCI-H596 = tested on: NCI-H596
Summary of the method: as §1

NCI-H2126 = tested on: NCI-H2126
Summary of the method: as §1

201T = tested on: 201T
Summary of the method: as §1

NCI-H3122 = tested on: NCI-H3122
Summary of the method: as §1

LK-2 = tested on: LK-2
Summary of the method: as §1

NCI-H1734 = tested on: NCI-H1734
Summary of the method: as §1

CAL-12T = tested on: CAL-12T
Summary of the method: as §1

SK-MES-1 = tested on: SK-MES-1
Summary of the method: as §1

NCI-H2087 = tested on: NCI-H2087
Summary of the method: as §1

NCI-H441 = tested on: NCI-H441
Summary of the method: as §1

PC-14 = tested on: PC-14
Summary of the method: as §1

ChaGo-K-1 = tested on: ChaGo-K-1
Summary of the method: as §1

NCI-H647 = tested on: NCI-H647
Summary of the method: as §1

LXF-289 = tested on: LXF-289
Summary of the method: as §1

Structure (SMILES): O=C(O)CCCCC(CCSCc1ccccc1)SCc1ccccc1 (stereo not drawn) [CPI-613] + Cc1nc(Nc2ncc(C(=O)Nc3c(C)cccc3Cl)s2)cc(N2CCN(CCO)CC2)n1 [Dasatinib] (partner 0.075 µM)
- relative viability (NCI-H2009; first compound 5 µM): 0.277
- relative viability (NCI-H2009; first compound 15.81 µM): 0.264
- relative viability (NCI-H2009; first compound 50 µM): 0.278
- relative viability (NCI-H2009; first compound 158.11 µM): 0.0869
- relative viability (NCI-H2009; first compound 500 µM): 0.029
- relative viability (NCI-H2170; first compound 5 µM): 0.586
- relative viability (NCI-H2170; first compound 15.81 µM): 0.566
- relative viability (NCI-H2170; first compound 50 µM): 0.612
- relative viability (NCI-H2170; first compound 158.11 µM): 0.461
- relative viability (NCI-H2170; first compound 500 µM): 0.167
- relative viability (NCI-H1755; first compound 5 µM): 0.406
- relative viability (NCI-H1755; first compound 15.81 µM): 0.41
- relative viability (NCI-H1755; first compound 50 µM): 0.446
- relative viability (NCI-H1755; first compound 158.11 µM): 0.464
- relative viability (NCI-H1755; first compound 500 µM): 0.225
- relative viability (EMC-BAC-2; first compound 5 µM): 0.303
- relative viability (EMC-BAC-2; first compound 15.81 µM): 0.187
- relative viability (EMC-BAC-2; first compound 50 µM): 0.309
- relative viability (EMC-BAC-2; first compound 158.11 µM): 0.206
- relative viability (EMC-BAC-2; first compound 500 µM): 0.0369
- relative viability (NCI-H1651; first compound 5 µM): 0.348
- relative viability (NCI-H1651; first compound 15.81 µM): 0.387
- relative viability (NCI-H1651; first compound 50 µM): 0.416
- relative viability (NCI-H1651; first compound 158.11 µM): 0.282
- relative viability (NCI-H1651; first compound 500 µM): 0.123
- relative viability (H3255; first compound 5 µM): 0.408
- relative viability (H3255; first compound 15.81 µM): 0.307
- relative viability (H3255; first compound 50 µM): 0.346
- relative viability (H3255; first compound 500 µM): 0.335
- relative viability (HOP-62; first compound 5 µM): 0.625
- relative viability (HOP-62; first compound 15.81 µM): 0.68
- relative viability (HOP-62; first compound 50 µM): 0.659
- relative viability (HOP-62; first compound 158.11 µM): 0.521
- relative viability (HOP-62; first compound 500 µM): 0.0443
- relative viability (NCI-H322M; first compound 5 µM): 0.248
- relative viability (NCI-H322M; first compound 15.81 µM): 0.245
- relative viability (NCI-H322M; first compound 50 µM): 0.257
- relative viability (NCI-H322M; first compound 158.11 µM): 0.23
- relative viability (NCI-H322M; first compound 500 µM): 0.0545
- relative viability (ABC-1; first compound 5 µM): 0.561
- relative viability (ABC-1; first compound 50 µM): 0.527
- relative viability (ABC-1; first compound 158.11 µM): 0.232
- relative viability (ABC-1; first compound 500 µM): 0.196
- relative viability (NCI-H596; first compound 5 µM): 0.647
- relative viability (NCI-H596; first compound 15.81 µM): 0.616
- relative viability (NCI-H596; first compound 50 µM): 0.628
- relative viability (NCI-H596; first compound 158.11 µM): 0.465
- relative viability (NCI-H596; first compound 500 µM): 0.0504
- relative viability (NCI-H2126; first compound 5 µM): 0.561
- relative viability (NCI-H2126; first compound 15.81 µM): 0.58
- relative viability (NCI-H2126; first compound 50 µM): 0.605
- relative viability (NCI-H2126; first compound 158.11 µM): 0.331
- relative viability (NCI-H2126; first compound 500 µM): 0.107
- relative viability (201T; first compound 5 µM): 0.553
- relative viability (201T; first compound 15.81 µM): 0.527
- relative viability (201T; first compound 50 µM): 0.488
- relative viability (201T; first compound 158.11 µM): 0.352
- relative viability (201T; first compound 500 µM): 0.303
- relative viability (NCI-H3122; first compound 5 µM): 0.795
- relative viability (NCI-H3122; first compound 15.81 µM): 0.693
- relative viability (NCI-H3122; first compound 50 µM): 0.802
- relative viability (NCI-H3122; first compound 158.11 µM): 0.702
- relative viability (NCI-H3122; first compound 500 µM): 0.28
- relative viability (LK-2; first compound 5 µM): 0.241
- relative viability (LK-2; first compound 15.81 µM): 0.279
- relative viability (LK-2; first compound 50 µM): 0.252
- relative viability (LK-2; first compound 158.11 µM): 0.254
- relative viability (LK-2; first compound 500 µM): 0.195
- relative viability (NCI-H1734; first compound 5 µM): 0.411
- relative viability (NCI-H1734; first compound 15.81 µM): 0.47
- relative viability (NCI-H1734; first compound 50 µM): 0.413
- relative viability (NCI-H1734; first compound 158.11 µM): 0.301
- relative viability (NCI-H1734; first compound 500 µM): 0.105
- relative viability (CAL-12T; first compound 5 µM): 0.398
- relative viability (CAL-12T; first compound 15.81 µM): 0.454
- relative viability (CAL-12T; first compound 50 µM): 0.263
- relative viability (CAL-12T; first compound 158.11 µM): 0.0331
- relative viability (CAL-12T; first compound 500 µM): 0.0093
- relative viability (SK-MES-1; first compound 5 µM): 0.393
- relative viability (SK-MES-1; first compound 15.81 µM): 0.428
- relative viability (SK-MES-1; first compound 50 µM): 0.432
- relative viability (SK-MES-1; first compound 158.11 µM): 0.125
- relative viability (SK-MES-1; first compound 500 µM): 0.0807
- relative viability (NCI-H2087; first compound 5 µM): 0.809
- relative viability (NCI-H2087; first compound 15.81 µM): 0.886
- relative viability (NCI-H2087; first compound 50 µM): 0.792
- relative viability (NCI-H2087; first compound 158.11 µM): 0.196
- relative viability (NCI-H2087; first compound 500 µM): 0.023
- relative viability (NCI-H441; first compound 5 µM): 0.581
- relative viability (NCI-H441; first compound 15.81 µM): 0.52
- relative viability (NCI-H441; first compound 50 µM): 0.484
- relative viability (NCI-H441; first compound 158.11 µM): 0.3
- relative viability (NCI-H441; first compound 500 µM): 0.044
- relative viability (PC-14; first compound 5 µM): 0.237
- relative viability (PC-14; first compound 15.81 µM): 0.232
- relative viability (PC-14; first compound 50 µM): 0.247
- relative viability (PC-14; first compound 158.11 µM): 0.0644
- relative viability (PC-14; first compound 500 µM): 0.0134
- relative viability (ChaGo-K-1; first compound 5 µM): 0.583
- relative viability (ChaGo-K-1; first compound 15.81 µM): 0.594
- relative viability (ChaGo-K-1; first compound 50 µM): 0.594
- relative viability (ChaGo-K-1; first compound 158.11 µM): 0.336
- relative viability (ChaGo-K-1; first compound 500 µM): 0.146
- relative viability (NCI-H647; first compound 5 µM): 0.197
- relative viability (NCI-H647; first compound 15.81 µM): 0.144
- relative viability (NCI-H647; first compound 50 µM): 0.146
- relative viability (NCI-H647; first compound 158.11 µM): 0.0387
- relative viability (NCI-H647; first compound 500 µM): 0.0112
- relative viability (LXF-289; first compound 5 µM): 0.208
- relative viability (LXF-289; first compound 15.81 µM): 0.206
- relative viability (LXF-289; first compound 50 µM): 0.235
- relative viability (LXF-289; first compound 158.11 µM): 0.203
- relative viability (LXF-289; first compound 500 µM): 0.0464
